In PMC2425470 (Nucleic Acids Research, 2008):

Key:
[1] = target: T1, CF Im25 (25 kDa subunit of human cleavage factor Im; CPSF5; NUDT21) (Homo sapiens, UniProt O43809); test: steady-state tryptophan fluorescence titration; format: binding
[2] = target: T1, CF Im25 (25 kDa subunit of human cleavage factor Im; CPSF5; NUDT21); test: […] Å crystal structure; format: binding

T1 sequence (O43809 whole entry): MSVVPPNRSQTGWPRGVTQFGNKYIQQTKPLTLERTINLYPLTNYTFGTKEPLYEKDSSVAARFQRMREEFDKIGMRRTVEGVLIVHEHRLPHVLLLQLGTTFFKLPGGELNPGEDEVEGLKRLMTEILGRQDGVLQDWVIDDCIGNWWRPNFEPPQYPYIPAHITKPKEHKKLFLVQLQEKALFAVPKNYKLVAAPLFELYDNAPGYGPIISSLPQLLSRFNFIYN

Row | Kd [1] [µM] | Kd [2] [µM] | SMILES
1 | 1530 ± 180 |  | Nc1ncnc2c1ncn2[C@@H]1O[C@H](COP(=O)(O)OP(=O)(O)OP(=O)(O)O)[C@@H](O)[C@H]1O [ATP]
2 |  | 2.44 ± 0.49 | Nc1ncnc2c1ncn2[C@@H]1O[C@H](COP(=O)(O)OP(=O)(O)OP(=O)(O)OP(=O)(O)OC[C@H]2O[C@@H](n3cnc4c(N)ncnc43)[C@H](O)[C@@H]2O)[C@@H](O)[C@H]1O [Ap4A]
